How the values were obtained:
[1] = tested on: DG44-EPO, a CHO cell line expressing recombinant erythropoietin; assay: Cell culture potency of ethanolamine derivatives (viable cell density); type: cell-based, Chinese hamster; details: for Multiple of the ethanolamine molar equivalent yielding similar growth potential to ethanolamine: FIGS. 1A and 1B, titered up to 64× of a molar equivalent, viable cell density followed for 8 days
From the text: We tested a range of ethanolamine derivatives for cell culture potency, including phosphorylethanolamine (PE), triethanolamine (TE), diethanolamine (DE), monomethylethanolamine (MME), dimethylethanolamine (DME), and N-acetylethanolaine (NAE). […] The cell line used was DG44-EPO, a CHO cell line expressing recombinant erythropoietin, that requires ethanolamine for good growth. Cells were inoculated at 3×10^5/ml and cultured bi-weekly for 3 subpassages in each condition prior to starting the assay. The assay was also inoculated at 3×10^5/ml but followed for 8 days for viable cell density from a ViCell cell counter.
Next we titered the compounds up to 64× of a molar equivalent. Both phoshorylethanolamine and NAE at about 16× the molar equivalent yielded similar growth potential to ethanolamine. In another set of experiments, NAE at about 16× the ethanolamine molar equivalent was again shown to be able to supplement an ethanolamine-sensitive line as well as ethanolamine. These latter experiments were performed in 24 well culture trays. Cells were inoculated at 1×10^5/ml and samples harvested at day 12. Because the nitrogen atom in NAE is contained within an amide structure, it is expected that NAE should be stable and can be used in place of ethanolamine in cell culture media.
The negative control is without ethanolamine. The line way above the rest should be disregarded—it is a CD CHO catalogue control, not relevant to this assay.

HeLa cells = assay: HeLa cell growth with insulin-dendrimer-RGD conjugate, microencapsulated or not (FIG. 7B); type: cell-based; details: for Potency and growth characteristics of HeLa cells: FIG. 7B
From the text: FIG. 7B: Impact of microencapsulation of the insulin-dendrimer-RGD covalent conjugate on the growth of HeLa cell Growth.

[2] = Stability of insulin / insulin-dendrimer with and without alginate microencapsulation (FIG. 7A, FIG. 10); type: physicochemical
Method: Further examples for microencapsulating labile compounds other than ethanolamine are shown below. A sequestering agent like alginate was used to encapsulate or embed a dendrimer-insulin complex. The labile compound insulin was polymerized with PAMAM dendrimer, and further microencapsulated in alginate microbeads with or without PLL. Briefly, for dendrimer generation, PAMAM 2.5 (carboxylate surface groups) was used. Insulin was conjugated onto the dendrimer to which RGD sequences were also added to target the cell surface. The ratios of components in this complex was dendrimer:RGD:insulin=1:7:12.
Concentration of conjugate and alginate was adjusted as on attachment. Next conjugate was added to the alginate and mixed several minutes to distribute evenly. It was dripped through a 26 gauge needle using a 1 ml syringe into a calcium chloride bath (13.32 g/L). It was left to incubate for 30 minutes to solidify microcapsules. Then rinsed 1× in a solution also containing the dendrimer conjugate to prevent loss of component from the microcapsules. Then dried overnight in a vacuum over dessicant. The loaded microbeads were then added to AGT dry-format medium or used by adding directly into a liquid medium.
The insulin concentration of the dendrimer-insulin-RGD conjugate was estimated to be ˜2 mg/ml (pg 165/168). It needed to be diluted in half to get to ˜1 mg/ml (1000 μg/ml). […]

[3] = Microbeads protection studies during real-time ambient storage in AGT media (FIG. 8); type: physicochemical; details: FIG. 8, AGT media, ambient conditions
From the text: FIG. 8: Microbeads protection studies during real-time ambient storage.

## CC(=O)NCCO [NAE, N-acetylethanolamine]
[1]; FIG. 2A (Example 2)
  Higher concentration needed to perform in a cell growth assay comparable to ethanolamine: 8-12 fold
[1]; FIG. 2A cell growth titration assay (figure legend)
  Multiple of the ethanolamine molar equivalent able to supplement an ethanolamine-sensitive line comparable to ethanolamine: 16-20 ×
[1]
  Multiple of the ethanolamine molar equivalent yielding similar growth potential to ethanolamine: about 16 ×
[1]; another set of experiments, 24 well culture trays, harvested at day 12
  Multiple of the ethanolamine molar equivalent able to supplement an ethanolamine-sensitive line as well as ethanolamine: about 16 ×

## insulin [insulin alone]
HeLa cells
  Potency and growth characteristics of HeLa cells: equivalent potency and growth characteristics of HeLa cells

## alginate
HeLa cells
  Inhibition of / interference with viability or growth of HeLa cells: did not interfere with viability or growth of Hela cells

## unencapsulated dendrimer (with insulin): insulin conjugated onto PAMAM 2.5 dendrimer with RGD sequences, dendrimer:RGD:insulin=1:7:12, not encapsulated
HeLa cells
  Potency and growth characteristics of HeLa cells: equivalent potency and growth characteristics of HeLa cells
[2]
  Potency of insulin at 4° C.: comparable to that of insulin alone

## NCCOP(=O)(O)O [phoshorylethanolamine, phosphorylethanolamine]
[1]
  Multiple of the ethanolamine molar equivalent yielding similar growth potential to ethanolamine: about 16 ×

## NCCO [Unencapsulated ethanolamine, ethanolamine]
[3]
  Ethanolamine potency (activity) during ambient storage: drops quickly
[3]; listed as unprotected ethanolamine
  Ethanolamine potency (activity) during ambient storage: dropped quickly
